# “Also recorded” adds a separate entry of the source.
# Legend:
# total tau = test: Western Blot of baseline total tau (Tau46 antibody) in control neurons from non-transgenic mice; type: cell-based
# Description: (§1) In order to determine the effect of gambierol on the baseline phosphorylation of tau, Western Blot techniques were used. An in vitro cortical nueron model obtained from non-transgenic mice was used. The neuronal cultures and the processing of the samples were performed in the same manner as in the preceding example. The data obtained were corrected with the quantity of β-actin as a function of the protein content of the samples.
# β-amyloid = test: Western Blot of intracellular β-amyloid (6E10 antibody) in cortical neurons from triple transgenic mice; type: cell-based; details: 10 μM gambierol between days 3 and 7 of culture; 3×Tg-AD neocortical cultures
# Description: (§2) In order to perform the experiments of the present invention, one of the following were used: an in vitro cortical neuron model with simultaneous overexpression of tau and β-amyloid obtained from an Alzheimer's disease model in triple transgenic mice (3×Tg−AD or 3×Tg), obtainable by means of the process explained in international application WO2003/053136 and provided by the holders of said application, or an in vitro cortical neuron model obtained from non-transgenic mice (No Tg). […]
# (§3) In order to determine the effect of the compound of the present invention on the expression of tau and β-amyloid, Western Blot techniques were used. […] For the Western Blot studies, the protein expression was evaluated using the primary antibodies anti-β-amyloid 6E10 at a 1:500 dilution, anti-Tau AT8 (phosphorylated Tau at Ser 202, 1:1000 dilution) and anti-Tau AT100 (phosphorylated Tau at Thr 212 and Ser 214, 1:1000 dilution). […]
# (§4) For the Western Blot assays, the neuronal cultures treated with the compound of the present invention were washed with cold PBS and lysed in 50 mM Tris-HCl buffer (pH 7.4), which contains 150 mM NaCl, 1 mM EDTA, 1% Triton X-100, 2 mM DTT, 2.5 mM PMSF, 40 mg/ml aprotinin, 4 mg/ml leupeptin, 5 mM NaF, 1 mM Na3VO4, 1 mg/ml pepstatin A and 1 mg/ml benzamidine. The total protein concentration was determined by Bradford's method, using bovine albumin as the standard. […]
# [1] = system: phosphorylated Tau at Ser 202; test: Western Blot of phosphorylated tau at Ser 202 (AT8 antibody) in cortical neurons from triple transgenic mice; type: cell-based; details: 10 μM gambierol between days 3 and 7 of culture; 3×Tg cultures; p<0.05, n=3
# Description: as §2, §3, §4
# [2] = system: phosphorylated tau at residue Ser 202; test: Western Blot of baseline phosphorylated tau at Ser 202 in control neurons from non-transgenic mice; type: cell-based
# Description: as §1
# cortical neurons = test: Cell viability, Alamar Blue fluorescence assay in primary cortical cultures; type: cell-based, mice; details: up to a concentration of 20 μM
# Description: (§5) In order to perform the experiments of the present invention, one of the following were used: an in vitro cortical neuron model with simultaneous overexpression of tau and β-amyloid obtained from an Alzheimer's disease model in triple transgenic mice (3×Tg−AD or 3×Tg), obtainable by means of the process explained in international application WO2003/053136 and provided by the holders of said application, or an in vitro cortical neuron model obtained from non-transgenic mice (No Tg). The triple transgenic neuronal model presents simultaneous overexpression of the human transgenes for presenilin (PS1M146V), the β-amyloid precursor protein (APPSwe) and the tau protein (tauP301L), which leads to an Alzheimer's model with overexpression of β-amyloid and hyperphosphorylation of tau.
# (§6) The primary cortical cultures were obtained from 3×Tg−AD mice embryos of 15-17 days of gestation and the wild cultures were obtained from control non-3×Tg−AD mice embryos of the same strain. The effect of the compound used in this invention on the cell viability was determined by means of a fluorescence assay using the Alamar Blue viability indicator. In order to perform the assay, primary cortical cultures seeded in 96-well plates were used. The neuronal cells were incubated with the compound of the present invention, which was dissolved in dimethyl sulfoxide (DMSO) and added to the culture medium at different concentrations, and the effect thereof on the neuronal viability was determined at different times of treatment in vitro. The maximum concentration of gambierol evaluated in vitro was 20 μM and the concentration of Alamar Blue was 10%. The reaction volume used was 200 μl. The fluorescence was measured at wavelengths of 530 nm (excitation) and 590 nm (emission).
# [3] = as above; type: cell-based, mice; details: mouse, primary cortical neuron cultures from mouse embryos, 72 hours in culture, mean ± standard error, three experiments, read-out: Viability of cortical neurons, % with respect to the control
# Description: as §5, §6
# [4] = system: extracellular β-amyloid peptide (β-amyloid 1-42 or β-amyloid 1-40); test: ELISA of extracellular β-amyloid in culture medium of cortical neurons; type: cell-based, mice; details: triple transgenic cultures treated with gambierol compared to those not treated
# Description: The levels of extracellular β-amyloid in the culture medium of cortical neurons obtained from triple transgenic mice or from control mice treated with gambierol were determined by means of commercial ELISA kits for the detection of β-amyloid 1-42 or β-amyloid 1-40, following the manufacturer's recommended instructions (Covance). These kits are composed of plates treated with antibodies which capture the β-amyloid peptide at the amino-terminal end thereof. The standards with known quantities of β-amyloid, and the culture medium collected from the neuronal preparations with unknown quantities of β-amyloid, were added to the wells and incubated. The plates were washed in order to eliminate the unbound peptide and incubated for 2 hours in the presence of an antibody that binds to the carboxyl-terminal end of the β-amyloid peptide. Subsequently, the plates were washed and incubated with a peroxidase-conjugated secondary antibody. […] The optical density was measured by the absorbance at 495 nm, and a straight-line pattern was obtained (FIG. 4) with the quantities of β-amyloid added, wherefrom the quantity of β-amyloid in the culture medium collected from the neuronal preparations treated with the compounds of the present invention could be extrapolated (FIG. 5).
# [5] = system: phosphorylated Tau at Thr 212 and Ser 214; test: Western Blot of phosphorylated tau at Thr 212 and Ser 214 (AT100 antibody) in cortical neurons from triple transgenic mice; type: cell-based; details: 10 μM gambierol between days 3 and 7 of culture; 3×Tg cultures; p<0.05, n=3
# Description: as §2, §3, §4
# [6] = 10 μM gambierol, mean ± standard error, two experiments
smiles,measurement,setting,value
C=CC/C=C\C=C/C1OC2CC3OC4CCC5OC6CC7(C)OC8(C)C(O)CC(CCCO)OC8CC7OC6CC5OC4(C)CC3(C)OC2C=CC1(C)O (stereo not drawn) [gambierol],Baseline quantity of total tau in control neurons (in words),total tau,did not affect
same,"Baseline levels of total tau in control neurons, % with respect to the control",total tau; [6],111 ± 3.9%
same,"Overexpression of intracellular β-amyloid (6E10, Western Blot), in words",β-amyloid,significant decrease; also recorded: reduces
same,"Phosphorylated tau at Ser 202 (AT8, Western Blot), in words",[1],significant decrease; also recorded: reduces
same,Baseline level of phosphorylated tau at residue Ser 202 in control neurons (in words),[2],did not affect
same,"Levels of phosphorylated tau at residue Ser 202 in control neurons, % with respect to the control",[2]; [6],107 ± 8.1%
same,Effect on cell viability of cortical neuronal cultures (in words),cortical neurons,does not cause a reduction in the viability; also recorded: did not modify the cell viability
same,"viability at 72 h, 0.25 μM",[3]; 0.25 μM gambierol,103 ± 5.2%
same,"viability at 72 h, 0.5 μM",[3]; 0.5 μM gambierol,110 ± 1.4%
same,"viability at 72 h, 1 μM",[3]; 1 μM gambierol,105 ± 6.3%
same,"viability at 72 h, 5 μM",[3]; 5 μM gambierol,106 ± 4.7%
same,"viability at 72 h, 10 μM",[3]; 10 μM gambierol,105 ± 5.8%
same,"viability at 72 h, 20 μM",[3]; 20 μM gambierol,102 ± 3.8%
same,Levels of extracellular β-amyloid peptide secreted into the culture medium (in words),[4],decrease
same,"Phosphorylated tau at Thr 212 and Ser 214 (AT100, Western Blot), in words",[5],significant decrease; also recorded: reduces
